The numbers were not newly measured in patent US20200054560A1 (Alnova Pharmaceuticals, Ltd., priority 2017, published 2020), which cites them from elsewhere.

Each structure is given as a SMILES string.

Turning to `CC(=O)c1c(C)c2cnc(Nc3ccc(N4CCNCC4)cn3)nc2n(C2CCCC2)c1=O` [Palbociclib, 6-acetyl-8-cyclopentyl-5-methil-2-(5-piperazin-1-yl-pyridin-2-ylamino)-8H-pyrido [2,3-d] pyridin-7-one], the “solubility in N,N-dimethylformamide” value (N,N-dimethylformamide) is “slightly soluble”. Moreover, for the setting “above pH 4”, the “solubility above pH 4” value was “reduces significantly”. The “solubility behaviour at or below pH 4” value (at or below pH 4) is on record as “high-solubility compound”. Also, where the note is “dimethyl sulfoxide”, the “solubility in dimethyl sulfoxide” value is “slightly soluble”. Further, the solubility in methanol result (methanol) is listed as “very slightly soluble”. In addition, the solubility in water entry (water) is “very slightly soluble”.
